# Assay results published in PMC7112232, “Computational design of substrate selective inhibition” (PLoS Computational Biology, 2020).
# Tests used:
# [1] = target: T1, Prolyl Oligopeptidase (POP) (Homo sapiens, UniProt P48147); test: RP-HPLC cleavage assay with purified rhPOP (TRH as substrate); Km/Vmax and Dixon plots; assay type: biochemical
# T1 construct: gene PREP; recombinant human POP (rhPOP), GST moiety removed
# T1 sequence (P48147 1-710): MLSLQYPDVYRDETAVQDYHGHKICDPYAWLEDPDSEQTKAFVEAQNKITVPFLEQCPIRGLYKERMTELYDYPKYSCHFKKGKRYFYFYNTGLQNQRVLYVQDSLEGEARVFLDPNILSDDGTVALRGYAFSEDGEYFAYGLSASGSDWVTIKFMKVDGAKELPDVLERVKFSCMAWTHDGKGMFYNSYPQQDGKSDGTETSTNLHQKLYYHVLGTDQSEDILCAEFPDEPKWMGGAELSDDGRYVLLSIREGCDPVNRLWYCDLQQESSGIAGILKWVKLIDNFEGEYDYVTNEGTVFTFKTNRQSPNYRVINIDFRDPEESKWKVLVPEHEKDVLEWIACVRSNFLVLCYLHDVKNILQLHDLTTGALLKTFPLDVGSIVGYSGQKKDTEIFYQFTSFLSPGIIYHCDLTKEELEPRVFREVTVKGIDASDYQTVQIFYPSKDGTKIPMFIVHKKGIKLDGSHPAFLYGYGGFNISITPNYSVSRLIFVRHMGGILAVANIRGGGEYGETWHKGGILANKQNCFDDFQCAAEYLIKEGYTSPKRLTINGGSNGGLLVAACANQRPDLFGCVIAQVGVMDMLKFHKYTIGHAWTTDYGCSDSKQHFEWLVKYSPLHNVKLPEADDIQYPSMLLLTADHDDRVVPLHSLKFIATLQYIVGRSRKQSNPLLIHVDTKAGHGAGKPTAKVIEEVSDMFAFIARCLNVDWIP
# [2] = target: T1, Prolyl Oligopeptidase (POP); test: RP-HPLC cleavage assay with purified rhPOP (TRH as substrate); Dixon plots; assay type: biochemical
SMILES,IC50 [1],IC50 [2]
CCOC(=O)CN1C(=O)NC(CC)(c2ccccc2)C1=O (centres unmarked) [T5450157],130 µM,
O=C(CCC(=O)N1CCCC1)c1ccccc1 [T6816369],,32.1 µM
